Reference: US10907212B2, “Inhibitors of cell adhesion” (Regents of the University of Minnesota, priority 2016, dated 2021)
“Also recorded” adds a separate entry of the source. Where no end group is shown, it is not given here.

Each substance was assayed on ovarian cancer cell aggregation and spheroid formation (assay: Spheroid assay for peptides (visual scale +1 to +5)). Conditions: not given.
Format: cell-based, human
Experimental: Spheroids were formed from the NIH:OVCAR5 cell lines described above using the liquid overlay method. One milliliter of a single cell suspension was seeded at a concentration of 50,000 cells/ml in OptiMEM® media, into 24-well tissue culture plates coated with 0.5% Seakem agarose (in complete RPMI-1640). Plates were incubated at 37° C. in a humidified incubator with 5% CO2. At various time points up to 5 days, the plates were removed from the incubator and the spheroids were photographed with a Nikon CoolPix digital camera mounted on an Olympus CK2 inverted microscope with a 4× objective. The size of the spheroids was determined using the measure tool in Adobe Photoshop. The largest spheroids were quantified (20-90 spheroids/well), in a minimum of 8 wells, for a total of >300 spheroids per cell type.
The clinical relevance is that by blocking the formation of spheroids, the cells will be more sensitive to chemotherapy (which targets the single cells that proliferate more rapidly than spheroids).
The spheroid assay for peptides 1-30 were scored using a visual scale of +1 to +5. The controls were scored at +2 (24 hrs) and +4 (48 hrs). […] It may be harder to visually assess the size at 24 hours, since the spheroids are relatively small, but and perhaps some of the peptides are affecting cell division, and that is why the spheroids are smaller than the controls at 48 hours, but not 24 hrs (this can be easily assayed with an MTT assay).

Substance | spheroid size (in words)
AEASVRGLEDQNLW-NH2 (listed as Homo sapiens) [Peptide 19] | reduced spheroid size

Same assay, conditions: 24 hrs; visual scale of +1 to +5; Control = 2

Substance | Spheroid-24
CLSEGQPPPSYNWT-NH2 (listed as Homo sapiens) [Peptide 21] | 1
AEASVRGLEDQNLW-NH2 (listed as Homo sapiens) [Peptide 19] | 1
LRNAVQADEGEYEC-NH2 (listed as Homo sapiens) [Peptide 8] | 3
TGNGIYINGRGHLV-NH2 (listed as Homo sapiens) [Peptide 29] | 3
EAQNRTLFFKGPINY-NH2 (listed as Homo sapiens) [Peptide 52] | 1
NPNGTVTVISRYRLV-NH2 (listed as Homo sapiens) [Peptide 44] | 3
LPSLNPGPALEEGQ-NH2 (listed as Homo sapiens) [Peptide 11] | ~1?
LVPSREAHQQSLAC-NH2 (listed as Homo sapiens) [Peptide 45] | 3

Same assay, conditions: 48 hrs; visual scale of +1 to +5; Control = 4

Substance | Spheroid-48
CLSEGQPPPSYNWT-NH2 (listed as Homo sapiens) [Peptide 21] | 2
AEASVRGLEDQNLW-NH2 (listed as Homo sapiens) [Peptide 19] | 2
EAQNRTLFFKGPINY-NH2 (listed as Homo sapiens) [Peptide 52] | 2
LPSLNPGPALEEGQ-NH2 (listed as Homo sapiens) [Peptide 11] | 3

Same assay, conditions: at 24 hrs

Substance | spheroid size relative to the control (in words)
LRNAVQADEGEYEC-NH2 (listed as Homo sapiens) [Peptide 8] | slightly larger spheroid size

The substances below were run on nectin 4 protein on NIH:OVCAR-5 cells (assay: Effect of peptides on anti-Nectin-4 antibody binding to cells as determined by flow cytometry). Conditions: Run Five; 150 μg/mL peptide, 30 minutes; Control 5 = 17,768.90.
Format: cell-based, human
Experimental: Confluent monolayers of cells were detached from 75 cm^2 tissue culture flasks using Accutase cell dissociation buffer (Innovative Cell Technologies, San Diego, Calif.), washed, and labeled with mouse IgG or mAbs against Nectin-4 or Nectin-1 (2.5 μg/10^6 cells) in Flow Buffer [phosphate buffered saline (PBS) containing 2.5% newborn calf serum and 0.02% sodium azide] for 30 min at 4° C.. Cells were washed and incubated with goat anti-mouse IgG F(ab′)2 (Jackson ImmunoResearch, West Grove, Pa.), then washed again and incubated with streptavidin-allophycocyanin conjugate (Jackson ImmunoResearch, West Grove, Pa.) for 30 min each. Cells were washed and fixed in Flow Buffer containing 1% formaldehyde and analyzed in the University of Minnesota Flow Cytometry Resource with a BD Accuri™ C6 flow cytometer (BD Biosciences, San Jose, Calif.) using the Accuri™ software.
Briefly, NIH:OVCAR-5 cells that natively express a moderate amount of nectin 4 protein were incubated for 30 minutes in 150 μg/mL of soluble peptide in DMSO. After incubation, the cells were washed, and then triple antibody stained using mouse anti-nectin 4 (or IgG control) primary antibody, biotinylated goat anti-mouse secondary antibody, and streptavidin APC tertiary antibody. Finally, utilizing the University of Minnesota flow core's Accuri C6 flow cytometer, the relative antibody binding affinity for control and peptide-treated samples was quantitated and compared. Data was collected for each of the 57 peptides generated.

Substance | N4 MFI
EAQNRTLFFKGPINY-NH2 (listed as Homo sapiens) [Peptide 52] | 20,692.13

Same assay, conditions: Run Five; Control 5 = 2.142155332

Substance | N4 MFI/IgG MFI
EAQNRTLFFKGPINY-NH2 (listed as Homo sapiens) [Peptide 52] | 2.717

Same assay, conditions: Run Five; IgG control primary antibody; Control 5 = 8,294.87

Substance | IgG MFI
EAQNRTLFFKGPINY-NH2 (listed as Homo sapiens) [Peptide 52] | 7,617.02

Same assay, conditions: Run Five; antibody binding relative to Control 5 = 100

Substance | nectin-4 antibody binding, percent of control
EAQNRTLFFKGPINY-NH2 (listed as Homo sapiens) [Peptide 52] | 138

Same assay, conditions: Run Four; 150 μg/mL peptide, 30 minutes; Control 4 = 9,631.58

Substance | N4 MFI
NPNGTVTVISRYRLV-NH2 (listed as Homo sapiens) [Peptide 44] | 7,802.22
LVPSREAHQQSLAC-NH2 (listed as Homo sapiens) [Peptide 45] | 9,868.29

Same assay, conditions: Run Four; Control 4 = 9.387504873

Substance | N4 MFI/IgG MFI
NPNGTVTVISRYRLV-NH2 (listed as Homo sapiens) [Peptide 44] | 8.481
LVPSREAHQQSLAC-NH2 (listed as Homo sapiens) [Peptide 45] | 9.646

Same assay, conditions: Run Four; IgG control primary antibody; Control 4 = 1,026

Substance | IgG MFI
NPNGTVTVISRYRLV-NH2 (listed as Homo sapiens) [Peptide 44] | 920
LVPSREAHQQSLAC-NH2 (listed as Homo sapiens) [Peptide 45] | 1023

Same assay, conditions: Run Four; antibody binding relative to Control 4 = 100

Substance | nectin-4 antibody binding, percent of control
NPNGTVTVISRYRLV-NH2 (listed as Homo sapiens) [Peptide 44] | 79.97
LVPSREAHQQSLAC-NH2 (listed as Homo sapiens) [Peptide 45] | 102.8

Same assay, conditions: Run One; 150 μg/mL peptide, 30 minutes; Control 1 = 15,015

Substance | N4 MFI
AEASVRGLEDQNLW-NH2 (listed as Homo sapiens) [Peptide 19] | 7,278
LRNAVQADEGEYEC-NH2 (listed as Homo sapiens) [Peptide 8] | 20,015
LPSLNPGPALEEGQ-NH2 (listed as Homo sapiens) [Peptide 11] | 15,211

Same assay, conditions: Run One; 150 μg/mL peptide, 30 minutes; IgG control primary antibody; Control 1 = 1,670

Substance | IgG MFI
AEASVRGLEDQNLW-NH2 (listed as Homo sapiens) [Peptide 19] | 2,254
LRNAVQADEGEYEC-NH2 (listed as Homo sapiens) [Peptide 8] | 1,670
LPSLNPGPALEEGQ-NH2 (listed as Homo sapiens) [Peptide 11] | 2,268

Same assay, conditions: Run One; Control 1 = 8.99

Substance | N4 MFI/IgG MFI
AEASVRGLEDQNLW-NH2 (listed as Homo sapiens) [Peptide 19] | 3.23
LRNAVQADEGEYEC-NH2 (listed as Homo sapiens) [Peptide 8] | 11.99
LPSLNPGPALEEGQ-NH2 (listed as Homo sapiens) [Peptide 11] | 6.71

Same assay, conditions: Run One; antibody binding relative to Control 1 = 100.00

Substance | nectin-4 antibody binding, percent of control
AEASVRGLEDQNLW-NH2 (listed as Homo sapiens) [Peptide 19] | 37.65
LRNAVQADEGEYEC-NH2 (listed as Homo sapiens) [Peptide 8] | 137.47
LPSLNPGPALEEGQ-NH2 (listed as Homo sapiens) [Peptide 11] | 96.99

Same assay, conditions: Run Two; 150 μg/mL peptide, 30 minutes; Control 2 = 49,491

Substance | N4 MFI
CLSEGQPPPSYNWT-NH2 (listed as Homo sapiens) [Peptide 21] | 34,351
TGNGIYINGRGHLV-NH2 (listed as Homo sapiens) [Peptide 29] | 18,643

Same assay, conditions: Run Two; Control 2 = 9.46

Substance | N4 MFI/IgG MFI
CLSEGQPPPSYNWT-NH2 (listed as Homo sapiens) [Peptide 21] | 8.61
TGNGIYINGRGHLV-NH2 (listed as Homo sapiens) [Peptide 29] | 6.04

Same assay, conditions: Run Two; IgG control primary antibody; Control 2 = 5,233

Substance | IgG MFI
CLSEGQPPPSYNWT-NH2 (listed as Homo sapiens) [Peptide 21] | 3,989
TGNGIYINGRGHLV-NH2 (listed as Homo sapiens) [Peptide 29] | 3,087

Same assay, conditions: Run Two; antibody binding relative to Control 2 = 100.00

Substance | nectin-4 antibody binding, percent of control
CLSEGQPPPSYNWT-NH2 (listed as Homo sapiens) [Peptide 21] | 68.60
TGNGIYINGRGHLV-NH2 (listed as Homo sapiens) [Peptide 29] | 35.15

Same assay, conditions: flow cytometry; 150 μg/mL peptide

Substance | nectin-4 antibody binding compared to untreated control cells (in words)
AEASVRGLEDQNLW-NH2 (listed as Homo sapiens) [Peptide 19] | reduction in nectin-4 antibody binding; also recorded: reduced antibody binding
LRNAVQADEGEYEC-NH2 (listed as Homo sapiens) [Peptide 8] | increased the binding of the Nectin-4 antibody to cells
TGNGIYINGRGHLV-NH2 (listed as Homo sapiens) [Peptide 29] | reduction in nectin-4 antibody binding
EAQNRTLFFKGPINY-NH2 (listed as Homo sapiens) [Peptide 52] | increased nectin-4 antibody

Same assay, conditions: summary table; Nectin-4 antibody binding relative to control = 100

Substance | Flow binding
AEASVRGLEDQNLW-NH2 (listed as Homo sapiens) [Peptide 19] | 38%
LRNAVQADEGEYEC-NH2 (listed as Homo sapiens) [Peptide 8] | 137%
TGNGIYINGRGHLV-NH2 (listed as Homo sapiens) [Peptide 29] | 35%
EAQNRTLFFKGPINY-NH2 (listed as Homo sapiens) [Peptide 52] | 138%
